The results in this text go back to US6451833B1, “N-substituted (α-imidazolyl-toluyl)pyrrole compounds for treatment of circulatory disorders” (Pharmacia Corporation, priority 1991, dated 2002).

The test system of one series is AII pressor response. The experiment in a line: Assay C: In Vivo Intraduodenal Pressor Assay Response for AII Antagonists. On the set-up: species or system rat. As to conditions: anesthetized Sprague-Dawley rats, 30 mg/kg i.d.; for Assay C Inhibition: inhibition of AII pressor response; for Assay C Duration: time from peak percent inhibition to 50% of peak. As to the method: Male Sprague-Dawley rats weighing 225-300 grams were anesthetized with Inactin (100 mg/kg, i.p.) and catheters were implanted into the trachea, femoral artery, femoral vein and duodenum. Arterial pressure was recorded from the femoral artery catheter on a Gould chart recorder (Gould, Cleveland, Ohio). The femoral vein catheter was used for injections of angiotensin II, mecamylamine and atropine. The tracheal catheter allows for airway patency, and the duodenal catheter was used for intraduodenal (i.d.) administration of test compounds. After surgery, the rats were allowed to equilibrate for 30 minutes. Mecamylamine (3 mg/kg, 0.3 ml/kg) and atropine (400 ug/kg, 0.3 ml/kg) were then given i.v. to produce ganglion blockade. These compounds were administered every 90 minutes throughout the test procedure. Angiotensin II was given in bolus doses i.v. (30 ng/kg in saline with 0.5% bovine serum albumin, 0.1 ml/kg) every 10 minutes three times or until the increase in arterial pressure produced was within 3 mmHg for two consecutive AII injections. The last two AII injections were averaged and were taken as the control AII pressor response. Ten minutes after the final control AII injection, the test compound (dissolved in sodium bicarbonate) was administered i.d. at a dose of 30 mg/kg in a volume of 0.2 ml. Angiotensin II injections were then given 5, 10, 20, 30, 45, 60, 75, 90, and 120 minutes after administration of the test compound and response of arterial pressure was monitored. The response to AII was calculated as percent of the control response and then the percent inhibition is calculated as 100 minus the percent control response. Duration of action of a test compound was defined as the time from peak percent inhibition to 50% of peak. One compound at one dose was tested in each rat. Each test compound was tested in two rats and the values for the two rats were averaged.

The next series concerns rabbit aortic rings. In words: Assay B: In Vitro Vascular Smooth Muscle Response for AII. As to conditions: test antagonist at 10^-5 M, AII contraction. As to the method:
The compounds of the invention were tested for antagonist activity in rabbit aortic rings. Male New Zealand white rabbits (2-2.5 kg) were sacrificed using an overdose of pentobarbital and exsanguinated via the carotid arteries. The thoracic aorta was removed, cleaned of adherent fat and connective tissue and then cut into 3-mm ring segments. The endothelium was removed from the rings by gently sliding a rolled-up piece of filter paper into the vessel lumen. The rings were then mounted in a water-jacketed tissue bath, maintained at 37° C., between moveable and fixed ends of a stainless steel wire with the moveable end attached to an FT03 Grass transducer coupled to a Model 7D Grass Polygraph for recording isometric force responses. […] The preparations were equilibrated for one hour before approximately one gram of passive tension was placed on the rings. Angiotensin II concentration-response curves were then recorded (3×10^−10 to 1×10^−5 M). Each concentration of AII was allowed to elicit its maximal contraction, and then AII was washed out repeatedly for 30 minutes before rechallenging with a higher concentration of AII. Aorta rings were exposed to the test antagonist at 10^−5 M for 5 minutes before challenging with AII. […] Each test antagonist was evaluated in aorta rings from two rabbits.

The target in series [1] is smooth muscle angiotensin II receptor. In words: Assay A: Angiotensin II Binding Activity. To be noted: displacement of 125I-AII, rat uterine membrane preparation. As to the method:
Compounds of the invention were tested for ability to bind to the smooth muscle angiotensin II receptor using a rat uterine membrane preparation. […] Other chemicals were obtained from Sigma Chemical Co. This assay was carried out according to the method of Douglas et al [Endocrinology, 106, 120-124 (1980)]. Rat uterine membranes were prepared from fresh tissue. All procedures were carried out at 4° C. Uteri were stripped of fat and homogenized in phosphate-buffered saline at pH 7.4 containing 5 mM EDTA. The homogenate was centrifuged at 1500×g for 20 min., and the supernatant was recentrifuged at 100,000×g for 60 min. The pellet was resuspended in buffer consisting of 2 mM EDTA and 50 mM Tris-HCl (pH 7.5) to a final protein concentration of 4 mg/ml. […] The reaction was initiated by the addition of membrane protein and the mixture was incubated at 25° C. for 60 min. The incubation was terminated with ice-cold 50 mM Tris-HCl (pH 7.5) and the mixture was filtered to separate membrane-bound labelled peptide from the free ligand. The incubation tube and filter were washed with ice-cold buffer. Filters were assayed for radioactivity in a Micromedic gamma counter. […] Specific binding was calculated as total binding minus nonspecific binding. […] Binding data were analyzed by a nonlinear least-squares curve fitting program.

With `CCCCc1nc(Cl)c(Cl)n1Cc1ccc(-n2cccc2C(=O)O)cc1` [Example 1, 1-[4-[(2-n-Butyl-4,5-dichloro-imidazolyl)methyl]phenyl]-1H-pyrrole-2-carboxylic Acid], the melting point (in general, the temperature, or range, at which the solid turns liquid) lay in the range of 181 to 182 °C. Also, in the series with AII pressor response, the “Assay C Inhibition” value came to 74% and the “Assay C Duration” value was in the range of 5 to 10 min. The “Assay B pA2” value in the series with rabbit aortic rings is given as 5.6. Besides, in series [1], the 50% inhibitory concentration (IC50) (as a rule, the concentration needed to halve the response being measured) was 5.8 µM.

Take `CCCCc1nc(CO)c(Cl)n1Cc1ccc(-n2cccc2C(=O)O)cc1` [Example 3]: the melting point lay in the range of 180 to 181 °C.

As to `CCCCc1nc(Cl)c(CO)n1Cc1ccc(-n2cccc2C(=O)O)cc1` [Example 2], in the series on AII pressor response, the “Assay C Inhibition” value is recorded as 92% and the “Assay C Duration” value lay in the range of 20 to 30 min.
